From ChEMBL document CHEMBL1201862, “PubChem BioAssay data set” (2004)
Calls of active or inactive are those of the source.

What was measured:
[1] = Luminescent dose response cell-based high throughput screening assay for inhibitors of the Janus kinase 2 mutant JAK2V617F. [Related pubchem assays: 1446 (Primary screen.), 1521 (Confirmation assay.), 1486 (Counter screen.)]; type: functional
[2] = microbe, parasite or virus in culture; type: functional; settings: Mycobacterium tuberculosis
[3] = growth suppression of PTEN-null colon cells, dose response, cell-based, HCT116 PTEN knockout (AID 1047); type: functional;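 further: HCT116 colon tumor cells with PTEN knocked out; cells exposed to compound for 60 hours before readout; potency for loss of cell viability measured by luminescence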
[4] = growth suppression of beta-catenin-knockout colon cells, dose response, cell-based, HCT116, human colon tumor (AID 1045); type: functional;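 further: HCT116 colon tumor cells with beta catenin knocked out; cells exposed to compound for 60 hours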
[5] = target: T1, Replicative DNA helicase DnaB (Mycobacterium tuberculosis, UniProt P9WMR3); test: DnaB intein splicing inhibitors, dose response, biochemical, cell-free fluorescence (AID 449749); type: functional
T1 sequence (P9WMR3 whole entry): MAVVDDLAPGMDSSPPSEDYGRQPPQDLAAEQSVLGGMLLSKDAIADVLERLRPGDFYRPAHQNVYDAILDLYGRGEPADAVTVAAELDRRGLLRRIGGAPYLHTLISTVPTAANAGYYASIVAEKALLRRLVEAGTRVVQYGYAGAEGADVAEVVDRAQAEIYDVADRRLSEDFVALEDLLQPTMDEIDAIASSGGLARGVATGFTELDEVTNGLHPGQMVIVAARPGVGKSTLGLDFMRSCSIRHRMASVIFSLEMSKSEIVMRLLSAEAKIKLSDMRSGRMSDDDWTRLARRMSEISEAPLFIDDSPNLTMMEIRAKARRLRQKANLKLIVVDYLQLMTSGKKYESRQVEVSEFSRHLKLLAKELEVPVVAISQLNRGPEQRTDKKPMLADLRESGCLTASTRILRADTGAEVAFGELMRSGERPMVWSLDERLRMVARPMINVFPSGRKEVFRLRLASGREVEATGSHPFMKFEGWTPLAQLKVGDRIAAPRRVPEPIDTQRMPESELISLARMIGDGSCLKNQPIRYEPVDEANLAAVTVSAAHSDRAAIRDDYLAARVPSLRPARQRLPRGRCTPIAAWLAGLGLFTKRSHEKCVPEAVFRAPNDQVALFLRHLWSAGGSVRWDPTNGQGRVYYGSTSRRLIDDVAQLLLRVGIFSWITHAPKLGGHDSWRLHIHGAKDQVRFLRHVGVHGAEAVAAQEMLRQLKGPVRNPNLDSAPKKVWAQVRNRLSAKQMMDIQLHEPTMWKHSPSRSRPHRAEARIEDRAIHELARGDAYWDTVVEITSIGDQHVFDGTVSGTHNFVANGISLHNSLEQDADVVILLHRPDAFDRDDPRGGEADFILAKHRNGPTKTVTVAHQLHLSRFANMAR

Protein RecA = target: T2, Protein RecA (Mycobacterium tuberculosis, UniProt P9WHJ3); test: Fluorescence Cell-Free Homogeneous Dose Retest to Identify Inhibitors of RecA-Intein Splicing Activity. [Related pubchem assays (depositor defined):AID2097, AID2223, AID489010, AID492950]; type: functional
T2 sequence (P9WHJ3 whole entry): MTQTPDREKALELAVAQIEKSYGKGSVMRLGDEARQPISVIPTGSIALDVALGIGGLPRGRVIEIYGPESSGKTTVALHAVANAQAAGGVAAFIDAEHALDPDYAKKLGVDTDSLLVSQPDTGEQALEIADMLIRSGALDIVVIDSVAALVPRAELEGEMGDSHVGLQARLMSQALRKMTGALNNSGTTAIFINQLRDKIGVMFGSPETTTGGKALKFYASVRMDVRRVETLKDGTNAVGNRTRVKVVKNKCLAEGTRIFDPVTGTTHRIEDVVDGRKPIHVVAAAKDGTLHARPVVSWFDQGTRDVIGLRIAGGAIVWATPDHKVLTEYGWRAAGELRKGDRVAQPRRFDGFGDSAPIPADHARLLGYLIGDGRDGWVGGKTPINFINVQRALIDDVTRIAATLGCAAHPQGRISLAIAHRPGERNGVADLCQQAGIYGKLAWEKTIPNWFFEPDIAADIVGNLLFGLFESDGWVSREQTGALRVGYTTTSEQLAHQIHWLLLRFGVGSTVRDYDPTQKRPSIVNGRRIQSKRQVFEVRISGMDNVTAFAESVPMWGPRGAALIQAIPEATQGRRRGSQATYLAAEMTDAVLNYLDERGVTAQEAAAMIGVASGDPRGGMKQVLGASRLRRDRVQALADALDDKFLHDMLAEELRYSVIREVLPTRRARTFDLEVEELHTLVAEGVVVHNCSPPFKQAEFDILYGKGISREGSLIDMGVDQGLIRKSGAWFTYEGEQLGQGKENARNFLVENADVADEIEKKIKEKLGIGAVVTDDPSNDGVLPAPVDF

[6] = miR-122 activators in hepatoma reporter cells, dose response, cell-based, Huh7 psiCHECK-miR122, Renilla luciferase, cherry-picked (AID 651956); type: functional;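 further: huh7 hepatoma cells stably carrying a psiCHECK-2 miR-122 sensor plasmid; renilla luciferase signal reporting endogenous miR-122 activity after 48 h compound exposure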
[7] = HEK293T cytotoxicity, dose response, cytotoxicity control for miR-122 modulator project, cell-based, inhibitor set, cherry-pick, set 2 (AID 720697); type: functional
[8] = HEK293T cytotoxicity, dose response, cytotoxicity control for miR-122 modulator project, cell-based, activator set, cherry-pick (AID 720690); type: functional;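 further: HEK293T human cells scored for general mammalian cytotoxicity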
Cytochrome P450 1A2 = target: T3, Cytochrome P450 1A2 (Homo sapiens, UniProt P05177);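 further: PubChem cytochrome P450 panel assay, CYP1A2 panel member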
T3 sequence (P05177 whole entry): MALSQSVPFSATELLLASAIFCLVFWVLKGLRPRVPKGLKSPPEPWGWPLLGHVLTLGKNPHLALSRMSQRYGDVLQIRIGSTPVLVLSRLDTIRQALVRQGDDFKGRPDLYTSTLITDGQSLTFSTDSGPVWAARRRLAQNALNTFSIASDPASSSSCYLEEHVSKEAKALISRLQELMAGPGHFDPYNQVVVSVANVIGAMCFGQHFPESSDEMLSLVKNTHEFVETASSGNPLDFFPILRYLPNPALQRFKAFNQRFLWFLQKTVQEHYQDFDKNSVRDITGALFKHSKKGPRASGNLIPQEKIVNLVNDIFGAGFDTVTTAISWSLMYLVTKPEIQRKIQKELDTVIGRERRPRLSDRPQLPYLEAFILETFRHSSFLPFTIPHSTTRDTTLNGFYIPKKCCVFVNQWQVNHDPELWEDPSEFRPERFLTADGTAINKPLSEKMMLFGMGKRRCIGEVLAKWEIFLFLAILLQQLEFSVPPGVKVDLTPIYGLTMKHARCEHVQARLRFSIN

Cytochrome P450 3A4 = Cytochrome P450 3A4 (Homo sapiens, UniProt P08684);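 further: CYP3A4 tested as one member of a cytochrome P450 panel screen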
[9] = target: T4, Sentrin-specific protease 8 (Homo sapiens, UniProt Q96LD8); type: functional
T4 sequence (Q96LD8 whole entry): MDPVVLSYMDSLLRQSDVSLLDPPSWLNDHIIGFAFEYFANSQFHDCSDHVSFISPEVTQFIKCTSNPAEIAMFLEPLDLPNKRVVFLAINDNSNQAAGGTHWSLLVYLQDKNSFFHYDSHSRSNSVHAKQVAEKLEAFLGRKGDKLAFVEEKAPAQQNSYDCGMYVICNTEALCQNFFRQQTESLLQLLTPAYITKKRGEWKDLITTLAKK

[10] = target: T4, Sentrin-specific protease 8; type: functional; remark: listed apart in the source
Genome polyprotein = Genome polyprotein (dengue virus type 2, UniProt P29990); test: Dengue-2 NS5 methyltransferase inhibitors, primary screen, biochemical, confirmation dose response (AID 588689); type: functional
[11] = target: T5, Probable nicotinate-nucleotide adenylyltransferase (Staphylococcus aureus (strain N315), UniProt P65502); type: functional, Staphylococcus aureus subsp. aureus N315;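 on IC50 Mean: confirmatory dose-response retesting of NadD inhibitor hits first found in an ultra-high-throughput screen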
[12] = target: T5, Probable nicotinate-nucleotide adenylyltransferase; type: functional, Staphylococcus aureus subsp. aureus N315; settings: read-out: IC50_Mean
[13] = ARNT/TACC3 interaction disruptors, potency, confirmation, biochemical, AlphaScreen, cherry-picked samples (AID 651703); type: functional, Homo sapiens;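 further: His-tagged ARNT PAS-B domain paired with GST-TACC3 E629A dimer coactivator fragment; potency of inhibitors that break up the complex and lower AlphaScreen signal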
[14] = NIH/3T3 fibroblast cytotoxicity, dose response, cytotoxicity control for T. cruzi growth inhibitor project, cell-based, cherry-pick samples, set 2 (AID 651817); type: functional; settings: NIH3T3
cells [15] = type: functional, cell-based
cells [16] = type: functional, cell-based; remark: listed apart in the source
Nonstructural protein 1 = Nonstructural protein 1 (Influenza A virus, UniProt Q194T2); type: functional, Influenza A virus (A/California/07/2009(H1N1))
[17] = target: Sentrin-specific protease 1 (Homo sapiens, UniProt Q9P0U3); test: Dose response confirmation of small molecule inhibitors of the catalytic domain of the SUMO protease, SENP1 in a FRET assay.; type: functional; settings: read-out: IC50_Mean
[18] = target: T6, Delta-type opioid receptor (Homo sapiens, UniProt P41143); test: HTS Image-Based Screen for Antagonists of the DOR Receptor. [Related pubchem assays (depositor defined):AID1777, AID1785, AID1786, AID2133]; type: functional
Mu-type opioid receptor = Mu-type opioid receptor (Homo sapiens, UniProt P35372); test: HTS Image-Based Screen for Agonists of the MOR Receptor. [Related pubchem assays (depositor defined):AID1777, AID1785, AID1786, AID2133]; type: functional;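 further: imaging of beta-arrestin GFP recruitment into spots after receptor activation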
[19] = target: T6, Delta-type opioid receptor; test: HTS Image-Based Screen for Agonists of the DOR Receptor. [Related pubchem assays (depositor defined):AID1777, AID1786, AID2133]; type: functional
Beta-galactosidase [20] = target: T7, Beta-galactosidase (Escherichia coli, UniProt Q8VNN2); test: PubChem AID 485352; type: functional
[21] = target: T8, Type-1 angiotensin II receptor (Homo sapiens, UniProt P30556); test: AT1 receptor antagonists, dose response, selectivity assay for APJ receptor antagonist project, cell-based, uHTS hits (AID 463214); type: functional;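 further: antagonist potency against angiotensin II stimulated AT1 response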
T8 sequence (P30556 whole entry): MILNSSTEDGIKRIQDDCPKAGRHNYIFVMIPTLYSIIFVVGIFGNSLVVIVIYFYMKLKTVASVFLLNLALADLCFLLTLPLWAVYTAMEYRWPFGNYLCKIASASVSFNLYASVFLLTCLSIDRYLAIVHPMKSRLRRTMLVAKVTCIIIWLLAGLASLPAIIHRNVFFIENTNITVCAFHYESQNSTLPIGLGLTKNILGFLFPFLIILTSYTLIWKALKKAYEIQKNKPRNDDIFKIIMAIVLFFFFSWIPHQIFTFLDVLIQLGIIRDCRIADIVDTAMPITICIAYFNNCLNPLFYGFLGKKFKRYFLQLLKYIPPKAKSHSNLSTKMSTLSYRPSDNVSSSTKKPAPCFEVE

[22] = target: T9, Kappa-type opioid receptor (Homo sapiens, UniProt P41145); type: functional
Beta-galactosidase [23] = target: T7, Beta-galactosidase; type: functional
[24] = target: T9, Kappa-type opioid receptor; type: functional; remark: listed apart in the source
[25] = target: Glucose-6-phosphate 1-dehydrogenase (Homo sapiens, UniProt P11413); test: human G6PD enzyme inhibitors, dose response, selectivity assay for P. falciparum G6PD inhibitor project, biochemical, fluorescence (AID 504792); type: functional
CHO = test: cytotoxicity in TLR9-MyD88 CHO cells, dose response, cytotoxicity control for TLR9-MyD88 binding inhibitor project, cell-based, luminescence (AID 588339); type: functional, hamster; settings: Cricetulus griseus;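 further: CHO cells stably coexpressing TLR9 and MyD88 fusions from primary screen; compound exposure lasted 48 hours before viability readout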
Vero = Vero cell cytotoxicity, cytotoxicity control for flavivirus capping enzyme inhibitors (AID 588742); type: functional; settings: Chlorocebus sabaeus
Beta Lactamase [26] = target: T10, Beta Lactamase (Pseudomonas aeruginosa, UniProt Q932Y6); test: beta-lactamase reporter inhibitor potency, dose response, artefact control for TLR9-MyD88 binding inhibitor project, BLA reporter cells, FRET fluorescence (AID 588341); type: cell-based;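 further: cell based assay in CHO-K1 cells stably expressing beta-lactamase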
[27] = Fluorescence-based cell-based high throughput dose response assay for inhibitors of the interaction of nucleotide-binding oligomerization domain containing 2 (NOD2) and the receptor-interacting serine-threonine kinase 2 (RIPK2).; type: functional; settings: Homo sapiens
Beta Lactamase [28] = target: T10, Beta Lactamase; test: beta-lactamase reporter inhibitor potency, dose response, artefact control for NOD2-RIPK2 interaction inhibitor project, BLA reporter cells, FRET fluorescence (AID 651552); type: functional, cell-based

T5 sequence (P65502 whole entry): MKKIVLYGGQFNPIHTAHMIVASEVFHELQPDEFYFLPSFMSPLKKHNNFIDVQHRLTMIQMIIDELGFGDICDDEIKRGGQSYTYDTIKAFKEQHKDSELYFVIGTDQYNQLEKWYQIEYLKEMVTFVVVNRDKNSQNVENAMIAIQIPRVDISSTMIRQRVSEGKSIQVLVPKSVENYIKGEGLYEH
T7 sequence (Q8VNN2 whole entry): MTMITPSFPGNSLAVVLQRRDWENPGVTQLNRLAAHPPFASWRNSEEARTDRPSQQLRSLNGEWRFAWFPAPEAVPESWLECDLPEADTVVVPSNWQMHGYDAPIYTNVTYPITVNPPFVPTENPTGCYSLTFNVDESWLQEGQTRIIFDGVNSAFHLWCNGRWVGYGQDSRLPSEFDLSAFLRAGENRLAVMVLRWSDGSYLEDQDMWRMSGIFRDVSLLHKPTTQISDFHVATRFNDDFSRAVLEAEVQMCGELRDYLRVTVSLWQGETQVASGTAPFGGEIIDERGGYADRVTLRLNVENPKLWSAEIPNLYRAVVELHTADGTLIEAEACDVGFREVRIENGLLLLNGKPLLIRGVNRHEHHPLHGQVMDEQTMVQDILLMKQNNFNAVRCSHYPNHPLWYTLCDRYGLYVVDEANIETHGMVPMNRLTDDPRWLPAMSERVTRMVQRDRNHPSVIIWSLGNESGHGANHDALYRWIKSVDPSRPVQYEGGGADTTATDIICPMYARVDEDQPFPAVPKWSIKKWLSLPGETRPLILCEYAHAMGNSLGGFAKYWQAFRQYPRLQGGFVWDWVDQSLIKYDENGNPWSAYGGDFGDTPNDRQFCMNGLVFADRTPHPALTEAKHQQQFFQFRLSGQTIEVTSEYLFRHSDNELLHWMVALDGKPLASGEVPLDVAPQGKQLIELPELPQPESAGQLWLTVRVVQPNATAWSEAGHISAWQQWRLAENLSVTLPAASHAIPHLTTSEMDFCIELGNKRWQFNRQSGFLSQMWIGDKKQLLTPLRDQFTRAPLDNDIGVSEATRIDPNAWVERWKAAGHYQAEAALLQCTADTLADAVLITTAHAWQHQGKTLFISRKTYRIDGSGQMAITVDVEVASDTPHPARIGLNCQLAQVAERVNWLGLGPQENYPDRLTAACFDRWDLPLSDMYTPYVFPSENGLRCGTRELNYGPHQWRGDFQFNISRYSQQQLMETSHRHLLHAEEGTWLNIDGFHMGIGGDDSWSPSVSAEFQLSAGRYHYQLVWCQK
T6 sequence (P41143 whole entry): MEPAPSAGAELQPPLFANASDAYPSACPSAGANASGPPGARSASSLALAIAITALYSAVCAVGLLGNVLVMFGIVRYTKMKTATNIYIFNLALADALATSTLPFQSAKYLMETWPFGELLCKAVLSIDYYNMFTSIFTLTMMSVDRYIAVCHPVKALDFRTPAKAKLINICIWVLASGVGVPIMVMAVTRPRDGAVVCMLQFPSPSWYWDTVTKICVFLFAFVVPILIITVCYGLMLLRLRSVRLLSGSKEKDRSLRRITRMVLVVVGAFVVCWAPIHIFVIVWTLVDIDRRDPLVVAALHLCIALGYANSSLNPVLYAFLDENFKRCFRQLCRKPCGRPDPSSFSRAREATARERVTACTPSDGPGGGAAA
T10 sequence (Q932Y6 whole entry, the tested form may be a part): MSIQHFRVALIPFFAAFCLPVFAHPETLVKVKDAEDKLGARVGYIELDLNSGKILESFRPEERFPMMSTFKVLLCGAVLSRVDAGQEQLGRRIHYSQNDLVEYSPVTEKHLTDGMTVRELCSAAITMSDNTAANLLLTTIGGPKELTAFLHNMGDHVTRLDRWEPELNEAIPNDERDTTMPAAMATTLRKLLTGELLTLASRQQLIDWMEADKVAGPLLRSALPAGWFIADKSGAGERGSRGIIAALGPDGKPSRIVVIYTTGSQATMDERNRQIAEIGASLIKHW
T9 sequence (P41145 whole entry): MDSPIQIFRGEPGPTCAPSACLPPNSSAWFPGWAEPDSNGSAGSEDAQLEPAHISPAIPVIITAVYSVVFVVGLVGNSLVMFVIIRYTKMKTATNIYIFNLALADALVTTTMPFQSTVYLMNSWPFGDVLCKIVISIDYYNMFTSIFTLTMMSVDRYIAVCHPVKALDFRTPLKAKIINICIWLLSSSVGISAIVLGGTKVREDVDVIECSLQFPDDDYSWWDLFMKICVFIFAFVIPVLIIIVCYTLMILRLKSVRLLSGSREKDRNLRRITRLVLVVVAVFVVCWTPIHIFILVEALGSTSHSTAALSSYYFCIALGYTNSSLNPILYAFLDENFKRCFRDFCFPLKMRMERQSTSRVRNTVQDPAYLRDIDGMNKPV
Genome polyprotein, sequence (P29990 2492-3391 limits assumed): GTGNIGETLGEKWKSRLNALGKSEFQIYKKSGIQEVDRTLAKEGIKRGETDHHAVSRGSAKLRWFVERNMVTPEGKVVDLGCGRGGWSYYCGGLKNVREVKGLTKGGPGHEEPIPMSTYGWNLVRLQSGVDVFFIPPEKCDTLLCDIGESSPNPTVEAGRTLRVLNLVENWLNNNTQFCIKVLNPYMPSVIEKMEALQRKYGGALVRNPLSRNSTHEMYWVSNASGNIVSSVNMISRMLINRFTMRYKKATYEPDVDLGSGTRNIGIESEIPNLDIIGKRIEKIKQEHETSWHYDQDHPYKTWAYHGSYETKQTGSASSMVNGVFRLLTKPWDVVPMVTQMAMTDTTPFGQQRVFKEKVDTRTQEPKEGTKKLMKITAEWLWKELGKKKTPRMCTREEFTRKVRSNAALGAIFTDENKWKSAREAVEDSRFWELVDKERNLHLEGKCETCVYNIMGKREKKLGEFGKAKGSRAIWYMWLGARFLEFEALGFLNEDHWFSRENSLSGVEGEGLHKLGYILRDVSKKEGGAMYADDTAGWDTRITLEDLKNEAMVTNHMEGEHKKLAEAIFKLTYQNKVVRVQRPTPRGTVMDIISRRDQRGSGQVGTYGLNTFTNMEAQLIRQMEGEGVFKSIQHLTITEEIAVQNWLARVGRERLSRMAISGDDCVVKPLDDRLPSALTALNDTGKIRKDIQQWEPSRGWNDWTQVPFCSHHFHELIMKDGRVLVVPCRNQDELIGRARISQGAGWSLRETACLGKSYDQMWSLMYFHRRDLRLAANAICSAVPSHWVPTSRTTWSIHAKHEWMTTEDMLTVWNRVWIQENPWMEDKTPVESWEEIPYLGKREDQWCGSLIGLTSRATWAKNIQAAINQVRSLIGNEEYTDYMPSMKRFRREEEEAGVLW
Mu-type opioid receptor, sequence (P35372 whole entry): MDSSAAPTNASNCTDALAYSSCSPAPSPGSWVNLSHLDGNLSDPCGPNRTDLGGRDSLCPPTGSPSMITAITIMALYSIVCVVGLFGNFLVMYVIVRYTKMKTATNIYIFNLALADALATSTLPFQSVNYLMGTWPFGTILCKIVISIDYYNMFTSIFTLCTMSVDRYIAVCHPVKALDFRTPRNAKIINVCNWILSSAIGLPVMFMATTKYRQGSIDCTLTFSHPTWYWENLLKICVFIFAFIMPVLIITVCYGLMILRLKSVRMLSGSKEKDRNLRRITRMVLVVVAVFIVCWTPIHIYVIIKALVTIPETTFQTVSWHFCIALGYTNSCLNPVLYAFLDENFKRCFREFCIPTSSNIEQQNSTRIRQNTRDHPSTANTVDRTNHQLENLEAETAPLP
Sentrin-specific protease 1, sequence (Q9P0U3 whole entry, the tested form may be a part): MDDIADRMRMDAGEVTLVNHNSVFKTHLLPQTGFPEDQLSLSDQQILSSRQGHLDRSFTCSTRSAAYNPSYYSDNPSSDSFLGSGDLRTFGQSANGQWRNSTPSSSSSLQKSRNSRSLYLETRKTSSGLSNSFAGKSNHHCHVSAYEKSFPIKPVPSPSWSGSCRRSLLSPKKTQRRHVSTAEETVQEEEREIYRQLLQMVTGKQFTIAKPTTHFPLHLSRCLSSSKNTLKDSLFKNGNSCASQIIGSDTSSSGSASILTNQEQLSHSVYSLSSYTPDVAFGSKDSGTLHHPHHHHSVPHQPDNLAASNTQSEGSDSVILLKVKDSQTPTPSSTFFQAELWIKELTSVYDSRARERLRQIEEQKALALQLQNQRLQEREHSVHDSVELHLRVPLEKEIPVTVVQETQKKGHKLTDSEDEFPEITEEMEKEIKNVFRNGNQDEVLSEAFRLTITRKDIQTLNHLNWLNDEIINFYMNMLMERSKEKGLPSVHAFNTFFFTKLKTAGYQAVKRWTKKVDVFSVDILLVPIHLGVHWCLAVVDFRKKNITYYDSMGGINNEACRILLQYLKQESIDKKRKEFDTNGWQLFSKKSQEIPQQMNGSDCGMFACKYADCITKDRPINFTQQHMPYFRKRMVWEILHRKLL
Nonstructural protein 1, sequence (Q194T2 whole entry, the tested form may be a part): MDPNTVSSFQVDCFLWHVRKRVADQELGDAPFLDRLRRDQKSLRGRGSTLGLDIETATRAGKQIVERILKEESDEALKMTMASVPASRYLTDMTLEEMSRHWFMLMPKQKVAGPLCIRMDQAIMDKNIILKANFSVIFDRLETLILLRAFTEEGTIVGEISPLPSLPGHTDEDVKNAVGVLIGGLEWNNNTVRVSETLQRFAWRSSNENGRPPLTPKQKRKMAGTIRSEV
Cytochrome P450 3A4, sequence (P08684 whole entry): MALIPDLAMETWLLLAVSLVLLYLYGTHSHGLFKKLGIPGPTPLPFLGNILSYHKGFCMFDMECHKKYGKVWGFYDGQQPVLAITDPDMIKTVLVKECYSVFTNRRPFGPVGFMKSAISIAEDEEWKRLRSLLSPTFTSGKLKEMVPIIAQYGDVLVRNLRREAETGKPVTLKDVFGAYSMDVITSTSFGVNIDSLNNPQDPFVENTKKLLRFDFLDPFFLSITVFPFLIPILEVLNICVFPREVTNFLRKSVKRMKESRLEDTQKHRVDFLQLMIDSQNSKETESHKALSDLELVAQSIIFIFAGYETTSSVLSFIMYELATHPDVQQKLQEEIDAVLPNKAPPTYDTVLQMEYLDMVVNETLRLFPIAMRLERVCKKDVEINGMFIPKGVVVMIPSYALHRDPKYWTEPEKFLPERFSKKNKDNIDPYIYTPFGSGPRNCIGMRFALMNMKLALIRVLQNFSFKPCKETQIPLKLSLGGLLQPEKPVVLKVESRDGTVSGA

CCCn1c(CC)nc([N+](=O)[O-])c1S(=O)(=O)c1ccccc1
active: IC50 [1] 0.996 µM | CC50 [2] 13.1 µM | EC50 [3] 5.85 µM | EC50 [4] 6.09 µM | AC50 [6] 24.8 µM | AC50 [7] 4.03 µM | AC50 [8] 7.65 µM
inactive: AC50 [5] > 380 µM | EC50 (Protein RecA) > 380 µM
inconclusive: AC50 (Cytochrome P450 1A2) 22.4 µM | AC50 (Cytochrome P450 3A4) 25.1 µM

CC1=NN(c2ccc(C)cc2C)C(=O)C1C(c1cccc(O)c1)C1C(=O)N(c2ccc(C)cc2C)N=C1C (stereo unspecified)
active: AC50 [5] 1.09 µM | EC50 (Protein RecA) 0.524 µM | IC50 [9] 12.6 µM | IC50 [10] 30 µM

O=C(O)COc1ccccc1/C=N/NC(=O)c1cc(-c2ccc(Cl)cc2)nc2ccccc12
active: IC50 (Genome polyprotein) 39.5 µM | IC50 [11] 5.1 µM | IC50 [12] 34.2 µM | AC50 [13] 75.2 µM

C[C@@H]1CN([C@@H](C)CO)C(=O)Cc2cc(NS(=O)(=O)c3ccc(Cl)cc3)ccc2O[C@H]1CN(C)S(=O)(=O)c1ccc(Cl)cc1
active: AC50 [14] 19.4 µM

CCOC(=O)/C(C#N)=C/C=C1\C=Cc2ccccc2N1CC
active: IC50 (Nonstructural protein 1) > 100 µM | IC50 [17] 6.27 µM
> 350 µM (not active): EC50 (cells [15]) | EC50 (cells [16])

CCC(=O)OCCNc1cc(Sc2nc3ccccc3s2)c2nonc2c1[N+](=O)[O-]
active: EC50 [19] < 0.5 µM | IC50 [21] 3.51 µM | IC50 [22] 8.16 µM | IC50 (CHO) 3.25 µM | AC50 [5] 2.36 µM | CC50 (Vero) 18.5 µM | EC50 (Protein RecA) 0.572 µM | IC50 (Genome polyprotein) 29.6 µM | IC50 [27] 1.53 µM
> 32 µM: IC50 [24]
inactive: IC50 [18] > 32 µM | EC50 (Mu-type opioid receptor) > 32 µM | EC50 (Beta-galactosidase [20]) > 40 µM | EC50 (Beta-galactosidase [23]) > 31.5 µM | IC50 [25] > 80 µM | IC50 (Beta Lactamase [26]) 10.5 µM | IC50 (Beta Lactamase [28]) 12.2 µM
